Laboratory results reported in US11666558B2, “Methods of treating intraocular pressure with activators of Tie-2” (EyePoint Pharmaceuticals, Inc., priority 2015, dated 2023).
Read-outs that look alike come from different tables or passages of the source.

Experiment: Ocular tissue concentrations (aqueous humor, vitreous humor, iris, retina, choroid, cornea) after topical ocular, subcutaneous and intravitreal administration
Assay type: in vivo, New Zealand White rabbits
Conditions: New Zealand White, rabbit; for concentration at 2 h / concentration at 4 h / concentration at 0.5 hr / concentration at 1 h: subcutaneous, 5 mg/kg/dose, subcutaneous 5 mg/kg/dose; for concentration at 6 h / concentration at 24 h / concentration at 48 h / concentration at 72 h: other: intravitreal, 2.5 mg/eye
Method: To measure the concentration of Compound 1 in plasma and ocular tissues following topical ocular, subcutaneous, and intravitreal administration, New Zealand White rabbits were administered Compound 1, and plasma and ocular samples were collected at pre-determined time points. Compound 1 formulations were prepared fresh on each day of dosing.
Ocular tissue samples from both eyes of each animal were collected and weights were recorded. Plasma and ocular tissue sample concentrations of Compound 1 were determined by LC-MS/MS.
New Zealand White rabbits weighing 2.5 to 3.5 kg were used on this study. Rabbits were housed one per cage. Animals were not fasted and only healthy animals with no ocular illness were used. Two rabbits per group were sacrificed at each of four ocular tissue sampling time points for a total of eight rabbits per group.
Animals were anesthetized for ocular (topical) and intravitreal dosing following the 12IA7 IACUC protocol. Each rabbit received a bolus dose of test formulation either via topical ocular administration 3 times daily on Days 1 and 2 (at 0, 6, and 12 hours), and once on Day 3 (at 0 hours) into both eyes; via intravitreal administration into both eyes once on Day 1 (at 0 hours); or via subcutaneous administration 2 times daily on Days 1 and 2 (at 0 and 8 hours) and once daily on Day 3 (at 0 hours). Doses were given within an approximately 1 hour window each day where applicable.
On Day 1, for intravitreal administration, or on Day 3, for topical ocular and subcutaneous administration, at the appropriate ocular tissue collection time points, animals were euthanized and both eyes were enucleated immediately. Following enucleation, each eye was rinsed with phosphate-buffered saline. Ocular tissue samples from both eyes of each animal were collected at predetermined time points and weights were recorded. All the samples were frozen immediately on dry ice, and stored at −60° C. to −80° C. pending bioanalysis.
An LC-MS/MS method was developed for the determination of Compound 1 in rabbit aqueous tissues (plasma, aqueous and vitreous humor) and solid ocular tissue samples. A pre-study standard curve was analyzed to determine the specificity, range, and lower limit of quantitation of the method. Plasma and tissue homogenate study samples were extracted and analyzed. All the samples were treated identically to the standards.
One eight-point standard curve was used in each analytical batch. To be accepted, each batch must have had at least five of eight standards with accuracy within ±20% of nominal, except at the lower limit of quantification (LLOQ), where ±25% was acceptable.
Concentration versus time data is plotted in FIGS. 3-16. All data are expressed as ng/g of the free drug. Samples that were below the limit of quantitation (0.2 ng/mL) were not used in the calculation of averages.

[1] = iris, TABLE 16: Iris, OD, free acid, Group 3, read-out: Iris Conc. (ng/g) OD
[2] = iris, TABLE 16: Iris, OS, free acid, Group 3, read-out: Iris Conc. (ng/g) OS
[3] = iris, TABLE 16: Iris, free acid, Group 3, read-out: Iris Average
[4] = retina homogenate, Retina homogenate, left eye, intravitreal 2.5 mg/eye (group 5), individual animals, read-out: Conc. (ng/mL) OS
[5] = retina homogenate, Retina homogenate, OD, sodium salt, intravitreal 2.5 mg/eye, Group 4, read-out: Retina Conc. (ng/mL) OD
[6] = retina homogenate, Retina homogenate, right eye, intravitreal 2.5 mg/eye (group 5), individual animals, read-out: Conc. (ng/mL) OD
[7] = retina homogenate, Retina homogenate, OS, sodium salt, intravitreal 2.5 mg/eye, Group 4, read-out: Retina Conc. (ng/mL) OS
[8] = retina homogenate, Retina homogenate, OD, sodium salt, Group 2, read-out: Retina Conc. (ng/mL) OD
[9] = retina homogenate, Retina homogenate, OS, sodium salt, Group 2, read-out: Retina Conc. (ng/mL) OS
[10] = retina homogenate, Retina homogenate, OD, free acid, Group 3, read-out: Retina Conc. (ng/mL) OD
[11] = retina homogenate, TABLE 16: Retina homogenate, OD, free acid, Group 3, read-out: Retina Conc. (ng/mL) OD
[12] = retina, Retina, OD, sodium salt, intravitreal 2.5 mg/eye, Group 4, read-out: Retina Conc. (ng/g) OD
[13] = retina, Retina, sodium salt, intravitreal 2.5 mg/eye, Group 4, read-out: Retina Avg.
[14] = retina, Retina, OS, sodium salt, intravitreal 2.5 mg/eye, Group 4, read-out: Retina Conc. (ng/g) OS

- concentration at 2 h [1]: 30.5 ng/g
- concentration at 2 h [2]: 29.5 ng/g
- concentration at 2 h [3]: 27.6 ng/g
- concentration at 4 h [1]: 26.5 ng/g
- concentration at 4 h [2]: 16.9 ng/g
- concentration at 4 h [3]: 17.5 ng/g
- concentration at 6 h [4]: 154000 ng/mL
- concentration at 24 h [5]: 29200 ng/mL
- concentration at 24 h [6]: 130000 ng/mL
- concentration at 48 h [5]: 6490 ng/mL
- concentration at 48 h [7]: 6030 ng/mL
- concentration at 48 h [6]: 66700 ng/mL
- concentration at 72 h [5]: 750 ng/mL
- concentration at 72 h [7]: 370 ng/mL
- concentration at 72 h [4]: 10800 ng/mL
- concentration at 72 h [6]: 9890 ng/mL
- concentration at 0.5 hr [8]: 2.77 ng/mL
- concentration at 0.5 hr [9]: 4.36 ng/mL
- concentration at 1 h [10]: 0.942 ng/mL
- concentration at 1 h [8]: 2.04 ng/mL
- concentration at 1 h (retina homogenate, Retina homogenate, OS, free acid, Group 3, read-out: Retina Conc. (ng/mL) OS): 0.63 ng/mL
- concentration at 1 h [9]: 3.93 ng/mL
- concentration at 2 h [10]: 0.574 ng/mL
- concentration at 2 h [8]: 1.36 ng/mL
- concentration at 2 h [9]: 1.62 ng/mL
- concentration at 4 h [8]: 1.79 ng/mL
- concentration at 1 h [11]: 0.942 ng/mL
- concentration at 1 h (retina homogenate, TABLE 16: Retina homogenate, OS, free acid, Group 3, read-out: Retina Conc. (ng/mL) OS): 0.63 ng/mL
- concentration at 2 h [11]: 0.574 ng/mL
- concentration at 6 h [12]: 431000 ng/g
- concentration at 6 h [13]: 774000 ng/g
- concentration at 24 h [12]: 321000 ng/g
- concentration at 24 h [14]: 308000 ng/g
- concentration at 24 h [13]: 356000 ng/g
- concentration at 48 h [12]: 71400 ng/g
- concentration at 48 h [14]: 66300 ng/g
- concentration at 48 h (retina, Retina, average, intravitreal 2.5 mg/eye (group 5), read-out: Avg.): 680000 ng/g
- concentration at 48 h (retina, Retina, left eye, intravitreal 2.5 mg/eye (group 5), individual animals, read-out: Conc. (ng/g) OS): 154000 ng/g
- concentration at 48 h (retina, Retina, right eye, intravitreal 2.5 mg/eye (group 5), individual animals, read-out: Conc. (ng/g) OD): 734000 ng/g
Structure (SMILES): COC(=O)N[C@@H](Cc1ccccc1)C(=O)N[C@@H](Cc1ccc(NS(=O)(=O)O)cc1)c1csc(-c2cccs2)n1 [Compound 1]
